In ChEMBL document CHEMBL5576038, “Design of a novel long-acting dual GLP-1/GIP receptor agonist” (Bioorg Med Chem, 2024):
Active and inactive are the calls of the source. No cut-off for these calls is given here. Where a SMILES comes first, the peptide text is derived from it. [ ]: non-standard residue; d: D form. The star is where a group is joined. X1 = N[C@@H](CCCCNC(=O)CC[C@H](NC(=O)CCCCCCCCCCCCCCCCCCC(=O)O)C(=O)O)C(=O)NCCCC[C@H](N)C(=O)N[C@@H](CCCCNC(=O)C*)C(=O)O; X4 = O=C(O)CCCCCCCCCCCCCCCCCCC(=O)NCCOCCOCC(=O)N[C@@H](CCC(=O)N[C@@H](CCC(=O)N[C@@H](CCCCNC(=O)C*)C(=O)O)C(=O)O)C(=O)O; X3 = O=C(O)CCCCCCCCCCCCCCCCC(=O)NCCOCCOCC(=O)N[C@@H](CCC(=O)N[C@@H](CCC(=O)N[C@@H](CCCCNC(=O)C*)C(=O)O)C(=O)O)C(=O)O; X2 = O=C(O)CCCCCCCCCCCCCCCCC(=O)NCCOCCOCC(=O)N[C@@H](CCC(=O)N[C@H](CCC(=O)N[C@H](CCCCNC(=O)C*)C(=O)O)C(=O)O)C(=O)O; Aib = CC(C)(N)C(=O)O

What was measured:
Mus musculus [1] = assay: Hypoglycemic effect in male db/db mouse model assessed as reduction in HbA1c level at 30 nmol/kg, sc administered every 3 days for 60 days and measured on day 18, 31, 37, 52, 58 and 60 by auto-chemistry analyzer; assay type: functional, organism-based; settings: time 60.0 day
Mus musculus [2] = assay: Anti-obesity activity in male C57/B16 mouse model of diet-induced obesity assessed as reduction in body weight at 30 nmol/kg, sc administered every 3 days for 46 days and measured every 3 days relative to control; assay type: functional, organism-based; design: scale not given: the % may be the effect or the level left; settings: time 46.0 day
Mus musculus [3] = assay: Hypoglycemic effect in male db/db mouse model assessed as reduction in body weight at 30 nmol/kg, sc administered every 3 days for 60 days and measured every 3 days; assay type: functional, organism-based; settings: time 60.0 day
Mus musculus [4] = assay: Reduction in body weight in male ICR mouse at 30 nmol/kg, sc measured for 4 days; assay type: functional, organism-based; settings: time 4.0 day
Mus musculus [5] = assay: Anti-obesity activity in male C57/B16 mouse model of diet-induced obesity assessed as reduction in body weight at 10 nmol/kg, sc administered every 3 days for 46 days and measured every 3 days relative to control; assay type: functional; design: scale not given: the % may be the effect or the level left
Mus musculus [6] = assay: Hypoglycemic effect in male db/db mouse model assessed as blood glucose level at 30 nmol/kg, sc administered every 3 days for 31 days and measured 72 hrs post each dose; assay type: functional, organism-based; settings: time 31.0 day
Mus musculus [7] = assay: Increase in body weight in male ICR mouse at 30 nmol/kg, sc measured after 2 days; assay type: functional, organism-based; settings: time 2.0 day
Mus musculus [8] = assay: Glucose-lowering effect in male ICR mouse assessed as reduction in plasma glucose AUC (0 to 72 hrs) at 30 nmol/kg, sc pretreated for 71 hrs followed by […] administration and measured after 60 mins by oral glucose tolerance test; assay type: functional, organism-based
[9] = target: Glucagon-like peptide 1 receptor (Homo sapiens, UniProt P43220); assay: Agonist activity at human GLP-1R expressed in CHO cells assessed as increase in cAMP production incubated for 30 mins by Eu-cAMP tracer based microplate reader analysis; assay type: functional, cell-based
[10] = target: T1, Gastric inhibitory polypeptide receptor (Homo sapiens, UniProt P48546); assay: Agonist activity at human GIPR expressed in CHO cells assessed as increase in cAMP production incubated for 30 mins by Eu-cAMP tracer based microplate reader analysis; assay type: functional, cell-based
T1 sequence (P48546 whole entry): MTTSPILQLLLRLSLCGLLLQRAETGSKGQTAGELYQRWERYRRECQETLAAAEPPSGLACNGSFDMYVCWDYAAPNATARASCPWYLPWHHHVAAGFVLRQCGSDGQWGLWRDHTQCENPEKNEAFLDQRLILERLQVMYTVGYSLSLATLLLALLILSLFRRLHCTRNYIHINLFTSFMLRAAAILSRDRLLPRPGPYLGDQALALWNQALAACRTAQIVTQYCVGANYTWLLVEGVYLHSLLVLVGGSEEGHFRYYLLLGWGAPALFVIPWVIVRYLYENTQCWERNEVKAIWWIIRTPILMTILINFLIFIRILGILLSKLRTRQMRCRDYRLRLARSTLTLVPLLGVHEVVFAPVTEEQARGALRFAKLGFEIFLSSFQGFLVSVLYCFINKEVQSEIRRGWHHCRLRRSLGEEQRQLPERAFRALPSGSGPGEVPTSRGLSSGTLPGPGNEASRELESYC

[11] = Cmax in Beagle dog at 10 nmol/kg, sc administered as single dose and measured upto 168 hrs by LC-MS/MS analysis; assay type: ADME, organism-based, Canis lupus familiaris; settings: in vivo
[12] = AUC (0 to 168 hrs) in Beagle dog at 10 nmol/kg, sc administered as single dose and measured upto 168 hrs by LC-MS/MS analysis; assay type: ADME, organism-based, Canis lupus familiaris; settings: in vivo
[13] = Elimination half life in Beagle dog at 10 nmol/kg, sc administered as single dose and measured upto 168 hrs by LC-MS/MS analysis; assay type: ADME, organism-based, Canis lupus familiaris; settings: in vivo
[14] = Tmax in Beagle dog at 10 nmol/kg, sc administered as single dose and measured upto 168 hrs by LC-MS/MS analysis; assay type: ADME, organism-based, Canis lupus familiaris; settings: in vivo
Mus musculus [15] = assay: Hypoglycemic effect in male db/db mouse model assessed as reduction in food intake at 30 nmol/kg, sc administered every 3 days for 60 days and measured every 3 days; assay type: functional, organism-based; settings: time 60.0 day

Glucagon-like peptide 1 receptor, sequence (P43220 whole entry): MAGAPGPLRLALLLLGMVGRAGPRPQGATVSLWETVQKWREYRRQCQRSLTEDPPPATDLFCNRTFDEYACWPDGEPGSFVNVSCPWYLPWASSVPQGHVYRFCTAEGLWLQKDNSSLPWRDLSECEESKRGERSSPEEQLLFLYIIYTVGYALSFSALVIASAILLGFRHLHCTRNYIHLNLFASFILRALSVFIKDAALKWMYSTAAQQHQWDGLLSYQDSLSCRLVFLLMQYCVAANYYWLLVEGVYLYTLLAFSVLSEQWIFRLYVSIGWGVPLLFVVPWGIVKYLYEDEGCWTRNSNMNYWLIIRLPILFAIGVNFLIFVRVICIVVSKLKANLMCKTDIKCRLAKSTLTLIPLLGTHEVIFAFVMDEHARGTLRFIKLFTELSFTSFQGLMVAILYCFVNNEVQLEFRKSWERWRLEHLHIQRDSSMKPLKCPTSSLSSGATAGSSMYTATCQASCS

## SEMAGLUTIDE
Mus musculus [1]
  Activity: Active
Mus musculus [2]
  Activity: 10%
Mus musculus [3]
  Activity: inactive

## TIRZEPATIDE [listing 1 of 2 here]
Mus musculus [1]
  Activity: Active
Mus musculus [4]
  Activity: Active
Mus musculus [3]
  Activity: Active
Mus musculus [5]; time 46.0 day
  Activity: 21%
Mus musculus [6]
  Activity: Active

## CC(C)C[C@H](NC(=O)[C@H](CC(C)C)NC(=O)[C@H](Cc1c[nH]c2ccccc12)NC(=O)[C@H](CCC(N)=O)NC(=O)[C@@H](NC(=O)[C@H](Cc1ccccc1)NC(=O)[C@H](CC(C)C)NC(=O)[C@H](CCCCN)NC(=O)[C@H](C)NC(=O)[C@H](C)NC(=O)[C@H](CCC(N)=O)NC(=O)[C@H](CSCC(=O)NCCCC[C@@H](NC(=O)CC[C@@H](NC(=O)CC[C@H](NC(=O)COCCOCCNC(=O)CCCCCCCCCCCCCCCCC(=O)O)C(=O)O)C(=O)O)C(=O)O)NC(=O)[C@H](CCC(=O)O)NC(=O)[C@H](CC(C)C)NC(=O)[C@H](Cc1ccc(O)cc1)NC(=O)[C@H](Cc1ccc(O)cc1)NC(=O)[C@H](CO)NC(=O)[C@H](Cc1ccc(O)cc1)NC(=O)[C@H](CC(=O)O)NC(=O)[C@H](CO)NC(=O)[C@@H](NC(=O)[C@H](Cc1ccccc1)NC(=O)[C@@H](NC(=O)CNC(=O)[C@H](CCC(=O)O)NC(=O)C(C)(C)NC(=O)[C@@H](N)Cc1ccc(O)cc1)[C@@H](C)O)[C@@H](C)O)C(C)C)C(=O)N[C@@H](C)C(=O)NCC(=O)NCC(=O)N1CCC[C@H]1C(=O)N[C@@H](CO)C(=O)N[C@@H](CO)C(=O)NCC(=O)N[C@@H](C)C(=O)N1CCC[C@H]1C(=O)N1CCC[C@H]1C(=O)N1CCC[C@H]1C(=O)N[C@@H](CO)C(N)=O (H-Y[Aib]EGTFTSDYSYYLEC(X2)QAAKLFVQWLLAGGPSSGAPPPS-NH2)
Mus musculus [7]
  Activity: Active
Mus musculus [8]
  Activity: Active
[9]; cho
  EC50: 0.14 nM
[10]; cho
  EC50: 0.11 nM

## TIRZEPATIDE [listing 2 of 2 here]
[11]; sc, 168 h
  Cmax: 344 ng/mL
[12]; sc, 168 h
  AUC: 35123 ng·h/mL
[13]; sc, 168 h
  beta t1/2: 93.8 h
[14]; sc, 168 h
  Tmax: 14 h

## CC(C)C[C@H](NC(=O)[C@H](CC(C)C)NC(=O)[C@H](Cc1c[nH]c2ccccc12)NC(=O)[C@H](CCC(N)=O)NC(=O)[C@@H](NC(=O)[C@H](Cc1ccccc1)NC(=O)[C@H](CC(C)C)NC(=O)[C@H](CSCC(=O)NCCCC[C@H](NC(=O)CC[C@H](NC(=O)CC[C@H](NC(=O)COCCOCCNC(=O)CCCCCCCCCCCCCCCCCCC(=O)O)C(=O)O)C(=O)O)C(=O)O)NC(=O)[C@H](C)NC(=O)[C@H](C)NC(=O)[C@H](CCC(N)=O)NC(=O)[C@H](CCCCN)NC(=O)[C@H](CCC(=O)O)NC(=O)[C@H](CC(C)C)NC(=O)[C@H](Cc1ccc(O)cc1)NC(=O)[C@H](Cc1ccc(O)cc1)NC(=O)[C@H](CO)NC(=O)[C@H](Cc1ccc(O)cc1)NC(=O)[C@H](CC(=O)O)NC(=O)[C@H](CO)NC(=O)[C@@H](NC(=O)[C@H](Cc1ccccc1)NC(=O)[C@@H](NC(=O)CNC(=O)[C@H](CCC(=O)O)NC(=O)C(C)(C)NC(=O)[C@@H](N)Cc1ccc(O)cc1)[C@@H](C)O)[C@@H](C)O)C(C)C)C(=O)N[C@@H](C)C(=O)NCC(=O)NCC(=O)N1CCC[C@H]1C(=O)N[C@@H](CO)C(=O)N[C@@H](CO)C(=O)NCC(=O)N[C@@H](C)C(=O)N1CCC[C@H]1C(=O)N1CCC[C@H]1C(=O)N1CCC[C@H]1C(=O)N[C@@H](CO)C(N)=O (H-Y[Aib]EGTFTSDYSYYLEKQAAC(X4)LFVQWLLAGGPSSGAPPPS-NH2)
Mus musculus [8]
  Activity: Active
[9]
  EC50: 1.25 nM
[10]
  EC50: 0.73 nM

## CC(C)C[C@H](NC(=O)[C@H](CC(C)C)NC(=O)[C@H](Cc1c[nH]c2ccccc12)NC(=O)[C@H](CCC(N)=O)NC(=O)[C@@H](NC(=O)[C@H](Cc1ccccc1)NC(=O)[C@H](CC(C)C)NC(=O)[C@H](CCCCN)NC(=O)[C@H](C)NC(=O)[C@H](C)NC(=O)[C@H](CCC(N)=O)NC(=O)[C@H](CCCCN)NC(=O)[C@H](CCC(=O)O)NC(=O)[C@H](CC(C)C)NC(=O)[C@H](CSCC(=O)NCCCC[C@H](NC(=O)CC[C@H](NC(=O)CC[C@H](NC(=O)COCCOCCNC(=O)CCCCCCCCCCCCCCCCC(=O)O)C(=O)O)C(=O)O)C(=O)O)NC(=O)[C@H](Cc1ccc(O)cc1)NC(=O)[C@H](CO)NC(=O)[C@H](Cc1ccc(O)cc1)NC(=O)[C@H](CC(=O)O)NC(=O)[C@H](CO)NC(=O)[C@@H](NC(=O)[C@H](Cc1ccccc1)NC(=O)[C@@H](NC(=O)CNC(=O)[C@H](CCC(=O)O)NC(=O)C(C)(C)NC(=O)[C@@H](N)Cc1ccc(O)cc1)[C@@H](C)O)[C@@H](C)O)C(C)C)C(=O)N[C@@H](C)C(=O)NCC(=O)NCC(=O)N1CCC[C@H]1C(=O)N[C@@H](CO)C(=O)N[C@@H](CO)C(=O)NCC(=O)N[C@@H](C)C(=O)N1CCC[C@H]1C(=O)N1CCC[C@H]1C(=O)N1CCC[C@H]1C(=O)N[C@@H](CO)C(N)=O (H-Y[Aib]EGTFTSDYSYC(X3)LEKQAAKLFVQWLLAGGPSSGAPPPS-NH2)
Mus musculus [7]
  Activity: Active
[9]
  EC50: 0.29 nM
[10]
  EC50: 0.14 nM

## CC(C)C[C@H](NC(=O)[C@H](CC(C)C)NC(=O)[C@H](Cc1c[nH]c2ccccc12)NC(=O)[C@H](CCC(N)=O)NC(=O)[C@@H](NC(=O)[C@H](Cc1ccccc1)NC(=O)[C@H](CC(C)C)NC(=O)[C@H](CSCC(=O)NCCCC[C@H](NC(=O)[C@@H](N)CCCCNC(=O)[C@@H](N)CCCCNC(=O)CC[C@H](NC(=O)CCCCCCCCCCCCCCCCCCC(=O)O)C(=O)O)C(=O)O)NC(=O)[C@H](C)NC(=O)[C@H](C)NC(=O)[C@H](CCC(N)=O)NC(=O)[C@H](CCCCN)NC(=O)[C@H](CCC(=O)O)NC(=O)[C@H](CC(C)C)NC(=O)[C@H](Cc1ccc(O)cc1)NC(=O)[C@H](Cc1ccc(O)cc1)NC(=O)[C@H](CO)NC(=O)[C@H](Cc1ccc(O)cc1)NC(=O)[C@H](CC(=O)O)NC(=O)[C@H](CO)NC(=O)[C@@H](NC(=O)[C@H](Cc1ccccc1)NC(=O)[C@@H](NC(=O)CNC(=O)[C@H](CCC(=O)O)NC(=O)C(C)(C)NC(=O)[C@@H](N)Cc1ccc(O)cc1)[C@@H](C)O)[C@@H](C)O)C(C)C)C(=O)N[C@@H](C)C(=O)NCC(=O)NCC(=O)N1CCC[C@H]1C(=O)N[C@@H](CO)C(=O)N[C@@H](CO)C(=O)NCC(=O)N[C@@H](C)C(=O)N1CCC[C@H]1C(=O)N1CCC[C@H]1C(=O)N1CCC[C@H]1C(=O)N[C@@H](CO)C(N)=O (H-Y[Aib]EGTFTSDYSYYLEKQAAC(X1)LFVQWLLAGGPSSGAPPPS-NH2)
[11]; Beagle, read-out: Cmax
  Cmax: 215 ng/mL
[12]; Beagle
  AUC(0-t) at 168 h: 23700 ng·h/mL
[13]; Beagle, read-out: beta t1/2 (converted)
  half-life: 78.3 h
Mus musculus [15]
  Activity: Active
Mus musculus [1]
  Activity: Active
Mus musculus [8]
  Activity: Active
[9]
  EC50: 0.18 nM
Mus musculus [4]
  Activity: Active
[14]; Beagle, read-out: Tmax
  Tmax: 18.7 h
Mus musculus [3]
  Activity: Active
[10]
  EC50: 0.06 nM
Mus musculus [5]; time 46 day
  Activity: 21%
Mus musculus [6]
  Activity: Active
